Values quoted from earlier work in patent EP2697366B1, “B[…] THE PRESERVATION OF CELLULAR FUN[…] CLINICAL CELL THERAPY” (Johann Wolfgang Goethe-Universität, Frankfurt am Main, priority 2011, dated 2018).

Tests used:
[1] = in vivo
[2] = two large clinical studies

For `CC[C@H](C)[C@H](NC(=O)[C@H](CCC(=O)O)NC(=O)[C@H](CCC(=O)O)NC(=O)[C@H](Cc1ccccc1)NC(=O)[C@H](CC(=O)O)NC(=O)CNC(=O)[C@H](CC(N)=O)NC(=O)CNC(=O)CNC(=O)CNC(=O)CNC(=O)[C@@H]1CCCN1C(=O)[C@H](CCCNC(=N)N)NC(=O)[C@@H]1CCCN1C(=O)[C@H](N)Cc1ccccc1)C(=O)N1CCC[C@H]1C(=O)N[C@@H](CCC(=O)O)C(=O)N[C@@H](CCC(=O)O)C(=O)N[C@@H](Cc1ccc(O)cc1)C(=O)N[C@@H](CC(C)C)C(=O)O` [Bivalirudin], the Eliminationshalbwertszeit [1] is listed as “ca. 25 Minuten” and the “schwere Blutungskomplikationen” value [2] is listed as “hochsignifikanten Reduktion schwerer Blutungskomplikationen”.
